Assays:
human D2 receptor = human D2 receptor (Homo sapiens (Human), UniProt P14416); experiment: Test 1: binding activity for human D2 receptor ([3H]Spiperone, CHO cell membrane fraction); conditions: human D2 receptor, [3H]Spiperone
Experimental: (§1) Test 1: Evaluation of Binding Activity for Human 5-HT1A Receptor, Human 5-HT2A Receptor, and Human D2 Receptor
(§2) Binding affinity of the present compound for human 5-HT1A receptor, human 5-HT2A receptor, and human D2 receptor was measured by the following procedures.
(§3) Each mixture was incubated at room temperature for 60 minutes. Then, the mixture was added quickly on a glassfiber filter plate (Multiscreen FB, Millipore, Inc.) coated with 0.3% aqueous polyethylenimine, and vacuum-filtered. Radioactivity remaining on the filter was measured with a liquid scintillation counter (PerkinElmer, Inc.). Binding inhibition rate was calculated from the following formula.
(§4) Ki of each compound was calculated from the following formula. Binding inhibition constant (Ki)=IC50/(1+S/Kd) wherein S is concentration of ligand; Kd is a binding dissociation constant of ligand to membrane, which is calculated from a saturated binding experiment conducted with the same cell membrane. A small Ki value means strong binding ability to a receptor.

human 5-HT1A receptor [1] = biological target: T1, human 5-HT1A receptor (Homo sapiens (Human), UniProt P08908); experiment: Test 1: binding activity for human 5-HT1A receptor ([3H]8-OH-DPAT, CHO cell membrane fraction)
Experimental: as §1, §2, §3
as §4, with “IC50 value was calculated by Hill analysis (Physiology, 1910, 40, 190-200). Ki of” for “Ki of”

human 5-HT1A receptor [2] = biological target: T1, human 5-HT1A receptor; experiment: Test 2: agonist activity for human 5-HT1A receptor ([35S]GTPγS binding); format: biochemical; conditions: for EC50: [35S]GTPγS binding, concentration at which half the activity of Emax was obtained; for Emax at 10 µM: agonist activity in the presence of 10 μM of compound, relative to 100 μmol/L 5-HT
Experimental: Test 2: Evaluation of Agonist Activity for Human 5-HT1A Receptor
CHO cell membrane fraction in which human 5-HT1A receptor was expressed as used in Test 1 was purchased. To a buffer containing guanosine diphosphate were added a test compound dissolved in DMSO, each receptor membrane sample diluted with buffer, and [^35S] Guanosine 5′-O-[gamma-thio]triphosphate (GTPγS). The mixture was incubated at room temperature for 60 minutes. Then, the mixture was added quickly on a glassfiber filter plate (Multiscreen FB, Millipore, Inc.), and vacuum-filtered. Radioactivity remaining on the […] was measured with a liquid scintillation counter. Agonist activity was calculated from the following formula.

[3] = Test 4: metabolic stability test in human hepatic microsome; format: in vitro ADME; conditions: 0.1 mg/mL microsome, 0.1 μmol/L compound, 37° C., 30 minutes
Experimental: Test 4: Metabolic Stability Test in Human Hepatic Microsome
The stability of the present compound in human hepatic microsome metabolism was evaluated as mentioned below. Human hepatic microsome was obtained from Xenontech. Human hepatic microsome, NADPH, and each test compound were mixed in 25 mmol/L phosphate buffer solution (pH 7.4) to reach the following concentrations as shown below, and the mixture was incubated at 37° C. for 30 minutes. • Human hepatic microsome: 0.1 mg/mL • NAPDH: 3.2 mmol/L • Test compound: 0.1 μmol/L
The residual ratio of the test compound in each sample after 30 minutes was measured by LC-MS, and the metabolic stability in human hepatic microsome was calculated from the following formula. Metabolic stability in human hepatic microsome (mL/min/mg protein)=−LN (residual ratio)/30/0.1

hERG channel = hERG channel (Homo sapiens (Human), UniProt Q12809); experiment: Test 6-1: inhibitory activity for hERG channel (auto patch clamp, Qpatch); format: cell-based; conditions: whole cell auto patch clamp, hERG-CHO cells; read-out: hERG inhibition IC50
Experimental: Test 6-1: Evaluation of Inhibitory Activity for hERG Channel
Inhibitory activity of the present compound for hERG channel was measured by whole cell patch clamp method with an auto patch clamp system using CHO cells in which hERG channel involved in human rapidly activating delayed rectifier potassium current (IKr) was forcibly expressed.
hERG-CHO cells purchased from ChanTest Cop. were cultured in a CO2 incubator at 37° C., and dissociated from a flask with trypsin shortly before the measurement of hERG current, to prepare a cell suspension.
Extracellular fluid: 2 mmol/L CaCl2, 1 mmol/L MgCl2, 10 mmol/L HEPES, 4 mmol/L KCl, 145 mmol/L NaCl, 10 mmol/L Glucose
Intracellular fluid: 5.4 mmol/L CaCl2, 1.8 mmol/L MgCl2, 10 mmol/L HEPES, 31 mmol/L KOH, 10 mmol/L EGTA, 120 mmol/L KCl, 4 mmol/L Na2-ATP
Test compound solution: Test compound was dissolved in DMSO to reach the concentration of 2 mmol/L or 20 mmol/L, in order to prepare a test compound solution. […] (Measurement of Current Value and Data Analysis)
The cell suspension, the extracellular fluid, the intracellular fluid, and the measurement plate were set in the auto patch clamp system, and hERG current was measured by whole cell patch clamp method. […] Each pulse interval was 15 seconds. The data analysis was carried out with Qpatch Assay Software (Biolin Scientific). The test was carried out by applying incrementally 4 concentrations of each test compound, and the average of the maximum peak tail currents which were obtained from the last 3 stimulations in each concentration was determined as the evaluated data. Based on the current inhibition rate for a pre-applied current at each concentration of each test compound, IC50 value was calculated by Hill equation with the software.

Chain of hERG channel (Q12809 whole entry): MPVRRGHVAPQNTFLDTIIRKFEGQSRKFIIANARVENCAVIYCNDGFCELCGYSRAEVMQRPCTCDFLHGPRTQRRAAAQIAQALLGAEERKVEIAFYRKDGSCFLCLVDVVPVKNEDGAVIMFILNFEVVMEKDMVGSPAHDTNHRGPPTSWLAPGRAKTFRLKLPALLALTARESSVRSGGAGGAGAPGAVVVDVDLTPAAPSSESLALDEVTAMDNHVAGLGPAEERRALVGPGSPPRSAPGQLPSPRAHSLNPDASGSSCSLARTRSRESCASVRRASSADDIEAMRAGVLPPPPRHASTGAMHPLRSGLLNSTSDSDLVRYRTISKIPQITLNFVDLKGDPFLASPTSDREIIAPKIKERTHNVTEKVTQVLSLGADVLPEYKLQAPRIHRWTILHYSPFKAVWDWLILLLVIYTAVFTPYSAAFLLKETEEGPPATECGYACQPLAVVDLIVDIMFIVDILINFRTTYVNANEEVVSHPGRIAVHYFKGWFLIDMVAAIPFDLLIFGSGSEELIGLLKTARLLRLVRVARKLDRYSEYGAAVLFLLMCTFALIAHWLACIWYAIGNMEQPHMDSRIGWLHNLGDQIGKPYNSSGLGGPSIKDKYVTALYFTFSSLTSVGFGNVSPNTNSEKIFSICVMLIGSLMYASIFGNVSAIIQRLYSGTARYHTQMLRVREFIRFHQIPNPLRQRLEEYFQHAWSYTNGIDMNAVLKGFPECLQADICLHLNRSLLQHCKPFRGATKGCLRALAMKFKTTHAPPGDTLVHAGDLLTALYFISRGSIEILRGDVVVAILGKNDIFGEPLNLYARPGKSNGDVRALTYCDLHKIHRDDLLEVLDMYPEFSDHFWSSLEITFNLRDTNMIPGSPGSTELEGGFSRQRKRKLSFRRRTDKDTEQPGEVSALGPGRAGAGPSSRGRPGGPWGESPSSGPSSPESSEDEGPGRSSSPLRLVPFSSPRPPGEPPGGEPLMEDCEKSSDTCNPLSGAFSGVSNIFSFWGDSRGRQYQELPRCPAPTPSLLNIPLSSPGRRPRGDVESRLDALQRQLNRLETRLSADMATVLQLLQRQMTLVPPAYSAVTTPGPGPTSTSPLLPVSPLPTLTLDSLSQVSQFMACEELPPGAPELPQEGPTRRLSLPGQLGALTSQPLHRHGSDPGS
Chain of human D2 receptor (P14416 whole entry): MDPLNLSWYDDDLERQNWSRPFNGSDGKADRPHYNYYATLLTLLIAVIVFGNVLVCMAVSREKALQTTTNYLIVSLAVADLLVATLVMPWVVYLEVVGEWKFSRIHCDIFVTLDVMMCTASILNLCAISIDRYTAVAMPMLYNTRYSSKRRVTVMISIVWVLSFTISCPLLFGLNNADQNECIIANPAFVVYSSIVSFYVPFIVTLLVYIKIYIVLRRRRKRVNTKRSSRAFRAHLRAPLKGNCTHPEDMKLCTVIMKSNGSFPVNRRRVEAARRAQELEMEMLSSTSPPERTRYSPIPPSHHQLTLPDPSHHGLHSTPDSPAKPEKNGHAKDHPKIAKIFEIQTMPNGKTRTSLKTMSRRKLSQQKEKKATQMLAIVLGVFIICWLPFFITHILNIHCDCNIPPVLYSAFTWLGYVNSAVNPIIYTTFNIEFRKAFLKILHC
T1 sequence (P08908 whole entry): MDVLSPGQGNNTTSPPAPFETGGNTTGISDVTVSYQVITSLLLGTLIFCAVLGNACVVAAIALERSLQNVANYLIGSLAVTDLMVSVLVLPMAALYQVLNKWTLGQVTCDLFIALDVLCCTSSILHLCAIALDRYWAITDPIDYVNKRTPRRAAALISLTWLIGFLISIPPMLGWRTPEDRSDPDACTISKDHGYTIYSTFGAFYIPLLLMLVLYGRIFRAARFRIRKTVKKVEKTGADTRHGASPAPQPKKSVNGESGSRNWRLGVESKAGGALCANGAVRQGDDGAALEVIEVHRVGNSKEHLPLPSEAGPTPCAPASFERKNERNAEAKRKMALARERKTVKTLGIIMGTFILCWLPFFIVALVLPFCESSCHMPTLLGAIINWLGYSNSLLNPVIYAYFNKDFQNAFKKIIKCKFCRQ

| Compound | Ki (human D2 receptor) [nM] | Ki (human 5-HT1A receptor [1]) [nM] | EC50 (human 5-HT1A receptor [2]) [nM] | Emax at 10 µM (human 5-HT1A receptor [2]) [%] | Metabolic stability in human hepatic microsome [3] [mL/min/mg protein] | IC50 (hERG channel) [nM] |
| --- | --- | --- | --- | --- | --- | --- |
| O=C1c2cnc(C3CC3)nc2CCN1CCN1CCN(c2nsc3ccccc23)CC1 [Example 94] | 236 | 5.24 | 79.4 | 53 | 0.368 | 2300 |
| O=c1c2ncccc2ccn1CCN1CCC(c2noc3cc(F)ccc23)CC1 [Example 12] | 311 | 7.03 | 96 | 32 | 0.02 | 300 |
| Cn1ncc2c1CCN(CCN1CCC(c3noc4ccccc34)CC1)C2=O [Example 130] | 541 | 23.8 | 841 | 44 | <0.05 | 1600 |
| Cc1ccc2c(n1)C(=O)N(CCN1CCN(c3noc4ccccc34)CC1)CC2 [Example 183] | > 10000 | 21.9 | 308 | 44 | <0.05 | > 3000 |
| Cn1cnc2c1C(=O)N(CCN1CCC(c3noc4ccccc34)CC1)CC2 [Example 133] | 914 | 327 | 290 | 26 | <0.05 | 4700 |
| CC(C)c1nc2c(o1)C(=O)N(CCN1CCN(c3nsc4ccccc34)CC1)CC2 [Example 66] | 841 | 8.68 | 78.2 | 67 | 0.357 | 2100 |
| COc1ncc2c(n1)CCN(CCN1CCC(c3noc4ccccc34)CC1)C2=O [Example 176] | 248 | 5.1 | 30.6 | 40 | <0.05 | 1000 |
| O=C1c2cnccc2C2(CC2)CN1CCN1CCN(c2noc3ccccc23)CC1 [Example 136] | 2300 | 75.8 | 562 | 30 | 0.598 | 6000 |
| O=C1c2cn(-c3ccccc3)nc2CCN1CCN1CCN(c2nsc3ccccc23)CC1 [Example 168] | 145 | 1.02 | 100 | 52 | 0.924 | < 300 |
| O=C1c2ncccc2CCN1CCN1CCC(c2noc3ccc(F)cc23)CC1 [Example 5] | 7830 | 5.78 | 91.6 | 60 | <0.01 | 2400 |

Compounds with a lower Ki (human D2 receptor), results first:

| Ki (human D2 receptor) [nM] | Ki (human 5-HT1A receptor [1]) [nM] | EC50 (human 5-HT1A receptor [2]) [nM] | Emax at 10 µM (human 5-HT1A receptor [2]) [%] | Metabolic stability in human hepatic microsome [3] [mL/min/mg protein] | Compound | IC50 (hERG channel) [nM] |
| --- | --- | --- | --- | --- | --- | --- |
| 136 | 0.15 | 2.87 | 42 | <0.01 | COc1cc2c(cn1)C(=O)N(CCN1CCC(c3noc4ccccc34)CC1)CC2 [Example 14] | 800 |
| 121 | 0.22 | 1.8 | 76 | 0.04 | Cn1ncc2c1CCCN(CCN1CCN(c3nsc4ccccc34)CC1)C2=O [Example 44] | 7700 |
| 93 | 0.41 | 1.99 | 64 | 0.358 | CCc1cc2c(cn1)C(=O)N(CCN1CCN(c3nsc4ccccc34)CC1)CC2 [Example 104, 2-{2-[4-(1,2-Benzoisothiazol-3-yl)piperazin-1-yl]ethyl}-6-ethyl-3,4-dihydro-2,7-naphthyridin-1(2H)-one] | 700 |
| 62 | 1.4 | 6.14 | 54 | <0.05 | Cc1cc2c(cn1)C(=O)N(CCN1CCC(c3noc4ccccc34)CC1)CC2 [Example 135] | 700 |
